Tests used:
[1] = system: endogenous NAMPT in U2OS cells; assay: Cellular NAD+ modulation assay (NAD/NADH-Glo, U2OS cells); assay type: cell-based; conditions: Homo sapiens, 24 hours incubation, cellular NAD+; for maximal fold induction: read-out: Cellular Emax
How it was run: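 NAD/NADH-Glo luminescence quantified NAD+ after acid treatment (60 °C, 15 min) and neutralization of DTAB lysates. Beforehand, U2OS cells seeded 16 h earlier received compound concentration series for 24 h at 37 °C. Values given as half-maximal activation concentration (EC50) and maximal fold change versus DMSO (Emax).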

[2] = molecular target: T1, human enzyme NAMPT (full length) (Homo sapiens, UniProt P43490); assay: NMN fluorescence biochemical assay (stimulation of NMN synthesis by NAMPT); conditions: for EC50: NMN fluorescence assay, purified human NAMPT 100 nM, concentration giving half-maximal activation, read-out: Enzymatic EC50; for Enzymatic Emax: fold change of maximal activation compared to DMSO
T1 construct: human enzyme NAMPT (full length)
How it was run: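 Full-length human NAMPT (100 nM) was preincubated 15 min at 37 °C with compound in 50 mM Tris-HCl pH 7.5, 10 mM MgCl2, 2 mM DTT, then reacted 1 h at 37 °C with 50 μM NAM, 100 μM PRPP, 4 mM ATP (stated solution concentrations). NMN was derivatised with acetophenone/KOH then formic acid and read at Ex/Em 382/445 nm; EC50 and Emax (fold over DMSO) reported.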

T1 sequence (P43490 whole entry): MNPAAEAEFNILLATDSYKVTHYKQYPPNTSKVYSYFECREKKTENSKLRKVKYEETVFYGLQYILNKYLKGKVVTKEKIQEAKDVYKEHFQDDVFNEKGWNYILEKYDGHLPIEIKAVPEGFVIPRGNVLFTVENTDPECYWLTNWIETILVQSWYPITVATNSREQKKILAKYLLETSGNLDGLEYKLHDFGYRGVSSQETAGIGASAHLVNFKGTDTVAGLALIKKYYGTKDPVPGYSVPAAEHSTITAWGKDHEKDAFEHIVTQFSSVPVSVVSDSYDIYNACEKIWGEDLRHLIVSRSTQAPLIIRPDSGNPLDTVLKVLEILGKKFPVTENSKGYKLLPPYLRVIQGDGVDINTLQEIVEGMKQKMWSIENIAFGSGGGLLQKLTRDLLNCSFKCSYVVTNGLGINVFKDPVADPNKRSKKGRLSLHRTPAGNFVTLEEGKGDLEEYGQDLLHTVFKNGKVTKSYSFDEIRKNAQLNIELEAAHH

SMILES	EC50 [1] [nM]	maximal fold induction [1]	EC50 [2] [nM]	Enzymatic Emax [2]
Cc1noc(Cl)c1CC1c2ccccc2C(=O)N1Cc1ccc2[nH]nnc2c1 (stereo not drawn) [Compound 357, 2-((1H-benzo[d][1,2,3]triazol-5-yl)methyl)-3-((5-chloro-3-methylisoxazol-4-yl)methyl)isoindolin-1-one]	< 500	> 1.5	500 to 5000	A (A>3)
Cc1ccnc(C#N)c1CC1c2cc(C#N)ccc2C(=O)N1Cc1ccc2[nH]nnc2c1 (stereo not drawn) [Compound 359, 2-((1H-benzo[d][1,2,3]triazol-5-yl)methyl)-3-((2-cyano-4-methylpyridin-3-yl)methyl)-1-oxoisoindoline-5-carbonitrile]	500 to 5000	> 1.5	< 500	B (3≥B>2)
Cc1ccnc(C#N)c1CC1c2cc(C3CC3)ccc2C(=O)N1Cc1ccc2[nH]nnc2c1 (stereo not drawn) [Compound 360, 3-((2-((1H-benzo[d][1,2,3]triazol-5-yl)methyl)-6-cyclopropyl-3-oxoisoindolin-1-yl)methyl)-4-methylpicolinonitrile]	< 500	> 1.5	< 500	B (3≥B>2)
Cn1nc(C(F)F)c(Cl)c1CC1c2ccccc2C(=O)N1Cc1ccc2[nH]nnc2c1 (stereo not drawn) [Compound 361, 2-((1H-benzo[d][1,2,3]triazol-5-yl)methyl)-3-((4-chloro-3-(difluoromethyl)-1-methyl-1H-pyrazol-5-yl)methyl)isoindolin-1-one]	< 500	> 1.5	< 500	B (3≥B>2)
Cn1nc(C(F)(F)F)c(Cl)c1CC1c2ccccc2C(=O)N1Cc1ccc2[nH]nnc2c1 (stereo not drawn) [Compound 362, 2-((1H-benzo[d][1,2,3]triazol-5-yl)methyl)-3-((4-chloro-1-methyl-3-(trifluoromethyl)-1H-pyrazol-5-yl)methyl)isoindolin-1-one]	< 500	> 1.5	< 500	B (3≥B>2)
Cc1cncc(C#N)c1CC1c2ccccc2C(=O)N1Cc1ccc2[nH]nnc2c1 (stereo not drawn) [Compound 364, 4-((2-((1H-benzo[d][1,2,3]triazol-5-yl)methyl)-3-oxoisoindolin-1-yl)methyl)-5-methylnicotinonitrile]	< 500	> 1.5	< 500	B (3≥B>2)
Cn1ncc(Cl)c1CC1c2cc(C3COC3)ccc2C(=O)N1Cc1ccc2[nH]nnc2c1 (stereo not drawn) [Compound 370, 2-((1H-benzo[d][1,2,3]triazol-5-yl)methyl)-3-((4-chloro-1-methyl-1H-pyrazol-5-yl)methyl)-5-(oxetan-3-yl)isoindolin-1-one]	< 500	> 1.5	< 500	B (3≥B>2)
COCCOc1nn(C)c(CC2c3ccccc3C(=O)N2Cc2ccc3[nH]nnc3c2)c1Cl (stereo not drawn) [Compound 371, 2-((1H-benzo[d][1,2,3]triazol-5-yl)methyl)-3-((4-chloro-3-(2-methoxyethoxy)-1-methyl-1H-pyrazol-5-yl)methyl)isoindolin-1-one]	< 500	> 1.5	< 500	B (3≥B>2)
Cc1ccnc(C(C)(C)O)c1CC1c2ccccc2C(=O)N1Cc1ccc2[nH]nnc2c1 (stereo not drawn) [Compound 375, 2-((1H-benzo[d][1,2,3]triazol-5-yl)methyl)-3-((2-(2-hydroxypropan-2-yl)-4-methylpyridin-3-yl)methyl)isoindolin-1-one]	< 500	> 1.5	< 500	A (A>3)
Cc1ccnc(Br)c1CC1c2ccccc2C(=O)N1C/C=C/c1c[nH]nn1 (stereo not drawn) [Compound 380, (E)-2-(3-(1H-1,2,3-triazol-4-yl)allyl)-3-((2-bromo-4-methylpyridin-3-yl)methyl) isoindolin-1-one]	< 500	> 1.5	< 500	B (3≥B>2)
Cn1c(CC2c3ccccc3C(=O)N2Cc2ccc3[nH]nnc3c2)c(Cl)ccc1=O (stereo not drawn) [Compound 381, 2-((1H-benzo[d][1,2,3]triazol-5-yl)methyl)-3-((3-chloro-1-methyl-6-oxo-1,6-dihydropyridin-2-yl)methyl)isoindolin-1-one]	< 500	> 1.5	< 500	B (3≥B>2)
Cn1ncc(Cl)c1CC1c2cc(C(C)(C)O)ccc2C(=O)N1Cc1ccc2[nH]nnc2c1 (stereo not drawn) [Compound 382, 2-((1H-benzo[d][1,2,3]triazol-5-yl)methyl)-3-((4-chloro-1-methyl-1H-pyrazol-5-yl)methyl)-5-(2-hydroxypropan-2-yl)isoindolin-1-one]	500 to 5000	> 1.5	500 to 5000	B (3≥B>2)
Cc1ncnc(C#N)c1CC1c2ccccc2C(=O)N1Cc1ccc2[nH]nnc2c1 (stereo not drawn) [Compound 384, 5-((2-((1H-benzo[d][1,2,3]triazol-5-yl)methyl)-3-oxoisoindolin-1-yl)methyl)-6-methylpyrimidine-4-carbonitrile]	< 500	> 1.5	< 500	B (3≥B>2)
CN1CC(c2ccc3c(c2)C(Cc2c(Cl)cnn2C)N(Cc2ccc4[nH]nnc4c2)C3=O)C1 (stereo not drawn) [Compound 385, 2-((1H-benzo[d][1,2,3]triazol-5-yl)methyl)-3-((4-chloro-1-methyl-1H-pyrazol-5-yl)methyl)-5-(1-methylazetidin-3-yl)isoindolin-1-one]	5000 to 50000	> 1.5	500 to 5000	B (3≥B>2)
O=C1c2ccccc2C(Cc2n[nH]cc2Cl)N1Cc1ccc2[nH]nnc2c1 (stereo not drawn) [Compound 388, 2-((1H-benzo[d][1,2,3]triazol-5-yl)methyl)-3-((4-chloro-1H-pyrazol-3-yl)methyl)isoindolin-1-one]	500 to 5000	> 1.5	< 500	B (3≥B>2)
Cc1c(CC2c3ccccc3C(=O)N2Cc2ccc3[nH]nnc3c2)c(C#N)nn1C (stereo not drawn) [Compound 393, 4-((2-((1H-benzo[d][1,2,3]triazol-5-yl)methyl)-3-oxoisoindolin-1-yl)methyl)-1,5-dimethyl-1H-pyrazole-3-carbonitrile]	< 500	> 1.5	< 500	B (3≥B>2)
Cn1ncc(Cl)c1CC1c2cc(CC3COC3)ccc2C(=O)N1Cc1ccc2[nH]nnc2c1 (stereo not drawn) [Compound 394, 2-((1H-benzo[d][1,2,3]triazol-5-yl)methyl)-3-((4-chloro-1-methyl-1H-pyrazol-5-yl)methyl)-5-(oxetan-3-ylmethyl)isoindolin-1-one]	500 to 5000	> 1.5	< 500	B (3≥B>2)
CC1NC(=O)OC12CC(CN1C(=O)c3ccccc3C1Cc1ncccc1Br)C2 (stereo not drawn) [Compound 395, 2-((1-((3-bromopyridin-2-yl)methyl)-3-oxoisoindolin-2-yl)methyl)-8-methyl-5-oxa-7-azaspiro[3.4]octan-6-one]	500 to 5000	> 1.5	500 to 5000	C (2≥C)

— US20260078130A1, “NAMPT MODULATORS, PREPARATIONS, AND USES THEREOF” (SIRONAX LTD., priority 2022, published 2026)
